Data on 20 molecules can be found in patent US10758534B2 (Vertex Pharmaceuticals Incorporated, priority 2014, dated 2020).

This assay has as its target T1, F508del (Homo sapiens, UniProt P13569, DEL508-508).
T1 construct: expressed in transfected cells
Description: Protocol 1: membrane potential optical assay (FLIPR III, voltage sensing dye), identification of potentiator compounds. Type of assay: cell-based. The note with it: Table 3, compounds of Table 1. In short, it runs like this: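 Gating potentiation is read as a membrane-potential fluorescence change (FLIPR III, voltage-sensing dye) after one forskolin addition under a Cl− gradient, with gluconate replacing chloride, pH 7.4. Cells are F508del-expressing NIH3T3 mouse fibroblasts held 24 h at 27 °C and exposed to compound before dye loading.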

T1 sequence (P13569 with tags, fused parts or gaps DEL508-508): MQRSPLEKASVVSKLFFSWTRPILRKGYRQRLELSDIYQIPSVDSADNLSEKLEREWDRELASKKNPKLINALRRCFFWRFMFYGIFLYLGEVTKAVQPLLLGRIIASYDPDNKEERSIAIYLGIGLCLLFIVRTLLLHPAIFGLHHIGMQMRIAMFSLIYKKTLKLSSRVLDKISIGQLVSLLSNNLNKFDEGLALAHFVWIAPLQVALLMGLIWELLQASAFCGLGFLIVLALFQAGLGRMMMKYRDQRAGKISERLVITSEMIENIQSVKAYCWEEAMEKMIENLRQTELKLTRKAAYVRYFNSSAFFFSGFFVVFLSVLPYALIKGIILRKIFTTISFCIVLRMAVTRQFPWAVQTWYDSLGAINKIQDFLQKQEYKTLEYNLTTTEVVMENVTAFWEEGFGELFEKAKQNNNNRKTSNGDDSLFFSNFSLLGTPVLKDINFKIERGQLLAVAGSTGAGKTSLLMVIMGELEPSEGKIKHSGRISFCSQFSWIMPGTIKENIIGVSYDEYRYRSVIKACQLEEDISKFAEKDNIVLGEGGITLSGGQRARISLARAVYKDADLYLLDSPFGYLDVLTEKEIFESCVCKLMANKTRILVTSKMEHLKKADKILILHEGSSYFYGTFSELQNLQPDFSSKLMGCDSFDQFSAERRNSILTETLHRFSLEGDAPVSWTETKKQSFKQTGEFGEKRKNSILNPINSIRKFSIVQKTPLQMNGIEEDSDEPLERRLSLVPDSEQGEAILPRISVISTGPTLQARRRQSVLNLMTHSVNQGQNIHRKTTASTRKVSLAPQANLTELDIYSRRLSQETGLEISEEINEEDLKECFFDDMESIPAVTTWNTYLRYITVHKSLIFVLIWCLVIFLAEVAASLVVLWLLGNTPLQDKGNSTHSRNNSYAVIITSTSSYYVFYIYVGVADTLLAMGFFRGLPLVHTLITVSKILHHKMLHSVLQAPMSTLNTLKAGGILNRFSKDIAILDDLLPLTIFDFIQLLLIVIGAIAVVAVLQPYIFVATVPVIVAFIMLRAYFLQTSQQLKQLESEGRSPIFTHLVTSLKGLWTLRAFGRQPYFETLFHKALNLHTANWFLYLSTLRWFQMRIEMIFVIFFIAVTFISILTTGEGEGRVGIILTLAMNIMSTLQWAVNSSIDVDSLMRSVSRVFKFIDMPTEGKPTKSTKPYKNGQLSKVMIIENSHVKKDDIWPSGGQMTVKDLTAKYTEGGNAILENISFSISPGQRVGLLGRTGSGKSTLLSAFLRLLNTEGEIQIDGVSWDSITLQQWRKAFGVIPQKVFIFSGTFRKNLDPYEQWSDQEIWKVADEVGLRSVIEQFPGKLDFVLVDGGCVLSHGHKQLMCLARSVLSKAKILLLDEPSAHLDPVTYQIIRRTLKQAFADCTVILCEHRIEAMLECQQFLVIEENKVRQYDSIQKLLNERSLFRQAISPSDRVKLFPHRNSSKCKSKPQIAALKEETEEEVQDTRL

Turning to `CCOc1cccc2c1CN(Cc1c(C)cccc1C)C2(C)C(=O)NS(=O)(=O)c1cccc(F)n1` (centres unmarked) [Compound 1676, 2-[(2,6-dimethylphenyl)methyl]-4-ethoxy-N-[(6-fluoro-2-pyridyl)sulfonyl]-1-methyl-isoindoline-1-carboxamide], the EC30 result is reported as “+++ (“+++” means <3 uM)”.
The same measure for `CCC1CCN(c2nc(-c3cc(F)cc(OCC(C)C)c3)ccc2C(=O)NS(=O)(=O)c2ccn[nH]2)CC1` [Compound 1030, 2-(4-ethyl-1-piperidyl)-6-(3-fluoro-5-isobutoxy-phenyl)-N-(1H-pyrazol-5-ylsulfonyl)pyridine-3-carboxamide]: “+++ (“+++” means <3 uM)”; for `CC1CN(c2ncccc2C(=O)NS(=O)(=O)c2cccc(Oc3ccc(C(C)C)cc3)n2)C(C)(C)C1` (centres unmarked) [Compound 1902, N—[[6-(4-isopropylphenoxy)-2-pyridyl]sulfonyl]-2-(2,2,4-trimethylpyrrolidin-1-yl)pyridine-3-carboxamide]: “+++ (“+++” means <3 uM)”.
`C[C@@H]1CN(c2nc(-c3ccc(OC(F)(F)F)cc3)ccc2C(=O)NS(=O)(=O)N2CC[C@H](N)C2)C(C)(C)C1` [Compound 1763, N-[(3S)-3-aminopyrrolidin-1-yl]sulfonyl-6-[4-(trifluoromethoxy)phenyl]-2-[(4S)-2,2,4-trimethylpyrrolidin-1-yl]pyridine-3-carboxamide]: the EC30 entry is recorded as “+++ (“+++” means <3 uM)”.
With `COc1cc(F)c(F)cc1-c1ccc(C(=O)NS(=O)(=O)c2ccc[nH]c2=O)c(N2C[C@@H](C)CC2(C)C)n1` [Compound 1904, 6-(4,5-difluoro-2-methoxy-phenyl)-N-[(2-oxo-1H-pyridin-3-yl)sulfonyl]-2-[(4S)-2,2,4-trimethylpyrrolidin-1-yl]pyridine-3-carboxamide], the EC30 result is “+++ (“+++” means <3 uM)”.
The same measure for `CCNc1ccc(C(=O)NS(=O)(=O)c2cccc(N)n2)c(Oc2c(C)cc(C)cc2C)n1` [Compound 1128, N-[(6-amino-2-pyridyl)sulfonyl]-6-(ethylamino)-2-(2,4,6-trimethylphenoxy)pyridine-3-carboxamide]: “++ (“++” means between 3 uM and 10 uM)”; for `CC1CN(c2ncccc2C(=O)NS(=O)(=O)c2cccc(N3CCCCCC3)n2)C(C)(C)C1` (centres unmarked) [Compound 1932, N—[[6-(azepan-1-yl)-2-pyridyl]sulfonyl]-2-(2,2,4-trimethylpyrrolidin-1-yl)pyridine-3-carboxamide]: “+++ (“+++” means <3 uM)”.
The same measure for `CC(C)COc1cc(F)cc(-c2ccc(C(=O)NS(=O)(=O)C3CCOC3)c(N3C[C@@H](C)CC3(C)C)n2)c1` (stereo partly drawn) [Compound 1640, 6-(3-fluoro-5-isobutoxy-phenyl)-N-tetrahydrofuran-3-ylsulfonyl-2-[(4S)-2,2,4-trimethylpyrrolidin-1-yl]pyridine-3-carboxamide]: “+++ (“+++” means <3 uM)”; for `CC(C)COc1cc(F)cc(-c2ccc(C(=O)NS(=O)(=O)c3ccn[nH]3)c(N3CCC(F)(F)CC3)n2)c1` [Compound 1006, 2-(4,4-difluoro-1-piperidyl)-6-(3-fluoro-5-isobutoxy-phenyl)-N-(1H-pyrazol-5-ylsulfonyl)pyridine-3-carboxamide]: “+++ (“+++” means <3 uM)”; for `COc1cc(C)cc(Oc2cccc(S(=O)(=O)NC(=O)c3cccnc3N3CC(C)CC3(C)C)n2)c1` (centres unmarked) [Compound 1719, N—[[6-(3-methoxy-5-methyl-phenoxy)-2-pyridyl]sulfonyl]-2-(2,2,4-trimethylpyrrolidin-1-yl)pyridine-3-carboxamide]: “+++ (“+++” means <3 uM)”.
The same measure for `CC1CN(c2nc(C(C)(C)C)c(C3=CC4CCC(C3)N4C(=O)OC(C)(C)C)cc2C(=O)NS(=O)(=O)c2cccc(N)n2)C(C)(C)C1` (centres unmarked) [Compound 1388, tert-butyl 3-[5-[(6-amino-2-pyridyl)sulfonylcarbamoyl]-2-tert-butyl-6-(2,2,4-trimethylpyrrolidin-1-yl)-3-pyridyl]-8-azabicyclo[3.2.1]oct-3-ene-8-carboxylate]: “+++ (“+++” means <3 uM)”.
Take `CCCOc1cc(-c2ccc(C(=O)NS(=O)(=O)c3ccc[nH]c3=O)c(N3[C@H](C)CC[C@@H]3C)n2)ccc1Cl` [Compound 1293, 6-(4-chloro-3-propoxy-phenyl)-2-[(2R,5S)-2,5-dimethylpyrrolidin-1-yl]-N-[(2-oxo-1H-pyridin-3-yl)sulfonyl]pyridine-3-carboxamide]: the EC30 result is “++ (“++” means between 3 uM and 10 uM)”.
In the case of `CC1CN(c2ncccc2C(=O)NS(=O)(=O)c2cccc(OC(C)(C)C)n2)C(C)(C)C1` (centres unmarked) [Compound 1718, N-[(6-tert-butoxy-2-pyridyl)sulfonyl]-2-(2,2,4-trimethylpyrrolidin-1-yl)pyridine-3-carboxamide], the EC30 entry is recorded as “+++ (“+++” means <3 uM)”.
Take `Cc1cc(OC(C)C)ncc1-c1ccc(C(=O)NS(=O)(=O)c2cccc(N)n2)c(N2CC(C)CC2(C)C)n1` (centres unmarked) [Compound 905, N-[(6-amino-2-pyridyl)sulfonyl]-6-(6-isopropoxy-4-methyl-3-pyridyl)-2-(2,2,4-trimethylpyrrolidin-1-yl)pyridine-3-carboxamide]: the EC30 entry was “+++ (“+++” means <3 uM)”.
The result for `CC(C)COc1cc(F)cc(-c2ccc(C(=O)NS(=O)(=O)c3ccn[nH]3)c(N3CCC[C@@H]3c3ccccc3)n2)c1` [Compound 1060, 6-(3-fluoro-5-isobutoxy-phenyl)-2-[(2R)-2-phenylpyrrolidin-1-yl]-N-(1H-pyrazol-5-ylsulfonyl)pyridine-3-carboxamide] reads “+++ (“+++” means <3 uM)”; that for `CCOc1ccc(-c2ccc(C(=O)NS(=O)(=O)c3nccnc3N)c(NCC3(C)CCOCC3)n2)cc1` [Compound 1203, N-(3-aminopyrazin-2-yl)sulfonyl-6-(4-ethoxyphenyl)-2-[(4-methyltetrahydropyran-4-yl)methylamino]pyridine-3-carboxamide], “+ (“+” means greater than 10 uM)”; that for `COc1cccc(-c2nc(N3CC(C)CC3(C)C)c(C(=O)NS(=O)(=O)c3cccc(N)n3)cc2C)c1` (centres unmarked) [Compound 833, N-[(6-amino-2-pyridyl)sulfonyl]-6-(3-methoxyphenyl)-5-methyl-2-(2,2,4-trimethylpyrrolidin-1-yl)pyridine-3-carboxamide], “+++ (“+++” means <3 uM)”.
Take `CC(C)(C)c1ccc(C(=O)NS(=O)(=O)c2cccc(N)n2)c(OC2CC3CCC2C3)n1` (centres unmarked) [Compound 1349, N-[(6-amino-2-pyridyl)sulfonyl]-6-tert-butyl-2-norbornan-2-yloxy-pyridine-3-carboxamide]: the EC30 result is on record as “+++ (“+++” means <3 uM)”.
For the molecule `CCOCCOCCOc1cc(C)cc(-c2ccc(C(=O)NS(=O)(=O)c3cccc(N)n3)c(N3C[C@@H](C)CC3(C)C)n2)n1` [Compound 1696, N-[(6-amino-2-pyridyl)sulfonyl]-6-[6-[2-(2-ethoxyethoxy)ethoxy]-4-methyl-2-pyridyl]-2-[(4S)-2,2,4-trimethylpyrrolidin-1-yl]pyridine-3-carboxamide], the EC30 entry is “+++ (“+++” means <3 uM)”.
For the molecule `CC(=O)Nc1ncccc1S(=O)(=O)NC(=O)c1ccc(-c2ccc(OC(C)C)nc2)nc1N1C[C@@H](C)CC1(C)C` [Compound 1976, N-[(2-acetamido-3-pyridyl)sulfonyl]-6-(6-isopropoxy-3-pyridyl)-2-[(4S)-2,2,4-trimethylpyrrolidin-1-yl]pyridine-3-carboxamide], the EC30 entry was “+++ (“+++” means <3 uM)”.
